Experimental data as given in PubChem BioAssay AID1963973 (Molecular Pharmacology Branch, DTP, NCI, 2024).
pIC50: −log10 of the molar value.

System: 883617-216-R-J1-PDC tumor spheroids, viability
Assay: Anticancer human tumor 883617-216-R-J1-PDC patient-derived bladder carcinoma cell line growth inhibition [PI3K]
Settings: spheroids with HUVEC and MSC; for pIC50: curve of first compound; for viability, T/C: stronger effect = lower value
Outline: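 Combination activity was assessed by viability in multicellular tumor spheroids carrying HUVEC and MSC components. Agents were tested with PI3K inhibitors from a Cmax-based top dose (or 10 microM) downward in half-log increments.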

[1] = second compound 0.0316 µM, first compound 0.0316 µM
[2] = second compound 0.0316 µM, first compound 0.1 µM
[3] = second compound 0.0316 µM, first compound 0.316 µM
[4] = second compound 0.0316 µM, first compound 1 µM
[5] = second compound 0.0316 µM, first compound 3.16 µM
[6] = second compound 0.0316 µM, first compound 10 µM
[7] = second compound 0.1 µM, first compound 0.0316 µM
[8] = second compound 0.1 µM, first compound 0.1 µM
[9] = second compound 0.1 µM, first compound 0.316 µM
[10] = second compound 0.1 µM, first compound 1 µM
[11] = second compound 0.1 µM, first compound 3.16 µM
[12] = second compound 0.1 µM, first compound 10 µM
[13] = second compound 0.316 µM, first compound 0.0316 µM
[14] = second compound 0.316 µM, first compound 0.1 µM
[15] = second compound 0.316 µM, first compound 0.316 µM
[16] = second compound 0.316 µM, first compound 1 µM
[17] = second compound 0.316 µM, first compound 3.16 µM
[18] = second compound 0.316 µM, first compound 10 µM
[19] = second compound 1 µM, first compound 0.0316 µM
[20] = second compound 1 µM, first compound 0.1 µM
[21] = second compound 1 µM, first compound 0.316 µM
[22] = second compound 1 µM, first compound 1 µM
[23] = second compound 1 µM, first compound 3.16 µM
[24] = second compound 1 µM, first compound 10 µM
[25] = second compound 3.16 µM, first compound 0.0316 µM
[26] = second compound 3.16 µM, first compound 0.1 µM
[27] = second compound 3.16 µM, first compound 0.316 µM
[28] = second compound 3.16 µM, first compound 1 µM
[29] = second compound 3.16 µM, first compound 3.16 µM
[30] = second compound 3.16 µM, first compound 10 µM
[31] = second compound 10 µM, first compound 0.0316 µM
[32] = second compound 10 µM, first compound 0.1 µM
[33] = second compound 10 µM, first compound 0.316 µM
[34] = second compound 10 µM, first compound 1 µM
[35] = second compound 10 µM, first compound 3.16 µM
[36] = second compound 10 µM, first compound 10 µM
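Also: spheroids exposed to agents for 7 days before the viability read.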

SMILES: C#Cc1c(F)ccc2cc(O)cc(-c3ncc4c(N5CC6CCC(C5)N6)nc(OCC56CCCN5CC(F)C6)nc4c3F)c12 (centres undefined) + CC(Nc1ncnc2nc[nH]c12)c1cc2cccc(Cl)c2c(=O)n1-c1ccccc1
- pIC50 (second compound 0.0316 µM): < 5.00
- pIC50 (second compound 0.1 µM): < 5.00
- pIC50 (second compound 0.316 µM): < 5.00
- pIC50 (second compound 1 µM): < 5.00
- pIC50 (second compound 3.16 µM): 5.22
- pIC50 (second compound 10 µM): 6.92
- viability, T/C [1]: 91.5%
- viability, T/C [2]: 109%
- viability, T/C [3]: 84.2%
- viability, T/C [4]: 94.8%
- viability, T/C [5]: 78%
- viability, T/C [6]: 61.1%
- viability, T/C [7]: 101%
- viability, T/C [8]: 96.7%
- viability, T/C [9]: 95.1%
- viability, T/C [10]: 84.9%
- viability, T/C [11]: 94.8%
- viability, T/C [12]: 56.5%
- viability, T/C [13]: 77.6%
- viability, T/C [14]: 86.1%
- viability, T/C [15]: 78.5%
- viability, T/C [16]: 94.3%
- viability, T/C [17]: 76.4%
- viability, T/C [18]: 54.5%
- viability, T/C [19]: 84.1%
- viability, T/C [20]: 81.9%
- viability, T/C [21]: 74.2%
- viability, T/C [22]: 73%
- viability, T/C [23]: 69.9%
- viability, T/C [24]: 49.7%
- viability, T/C [25]: 77.6%
- viability, T/C [26]: 70.4%
- viability, T/C [27]: 60.3%
- viability, T/C [28]: 70.7%
- viability, T/C [29]: 55.1%
- viability, T/C [30]: 44.3%
- viability, T/C [31]: 52.1%
- viability, T/C [32]: 56.4%
- viability, T/C [33]: 39.1%
- viability, T/C [34]: 45.1%
- viability, T/C [35]: 33.2%
- viability, T/C [36]: 26.6%

SMILES: CC1(C)CCC(Nc2ncc(C(F)(F)F)c(-c3c[nH]c4c(P(C)(C)=O)c(C#N)ccc34)n2)CN1 (centres undefined) + CC(Nc1ncnc2nc[nH]c12)c1cc2cccc(Cl)c2c(=O)n1-c1ccccc1
- pIC50 (second compound 0.0316 µM): > 7.50
- pIC50 (second compound 0.1 µM): > 7.50
- pIC50 (second compound 0.316 µM): > 7.50
- pIC50 (second compound 1 µM): > 7.50
- pIC50 (second compound 3.16 µM): > 7.50
- pIC50 (second compound 10 µM): > 7.50
- viability, T/C [1]: 37.5%
- viability, T/C [2]: 37.6%
- viability, T/C [3]: 36.1%
- viability, T/C [4]: 31.7%
- viability, T/C [5]: 14.5%
- viability, T/C [6]: 0.45%
- viability, T/C [7]: 36.2%
- viability, T/C [8]: 30.1%
- viability, T/C [9]: 32.6%
- viability, T/C [10]: 30.9%
- viability, T/C [11]: 13.9%
- viability, T/C [12]: 1.12%
- viability, T/C [13]: 33.4%
- viability, T/C [14]: 35.1%
- viability, T/C [15]: 31.1%
- viability, T/C [16]: 26.5%
- viability, T/C [17]: 13.9%
- viability, T/C [18]: 1.62%
- viability, T/C [19]: 33.6%
- viability, T/C [20]: 33.7%
- viability, T/C [21]: 28.8%
- viability, T/C [22]: 28.1%
- viability, T/C [23]: 11.7%
- viability, T/C [24]: 0.54%
- viability, T/C [25]: 29.7%
- viability, T/C [26]: 27.3%
- viability, T/C [27]: 28.8%
- viability, T/C [28]: 24.7%
- viability, T/C [29]: 15%
- viability, T/C [30]: 1.34%
- viability, T/C [31]: 25.7%
- viability, T/C [32]: 20.8%
- viability, T/C [33]: 21.8%
- viability, T/C [34]: 20.9%
- viability, T/C [35]: 19.2%
- viability, T/C [36]: 0.84%
